For one compound, IC50 results are on record in BindingDB's records for patent US12384786 (Minghui Pharmaceutical (Shanghai), 2025).

Test [1] addresses Tyrosine-protein kinase BTK (Homo sapiens, UniProt Q06187). The test is described as follows: Biochemical Evaluation.
The target of test [2] is Tyrosine-protein kinase BTK [C481S] (Homo sapiens, UniProt Q06187, C481S). The experiment in a line: Biochemical Evaluation.
Sequence of Tyrosine-protein kinase BTK [C481S] (Q06187 2-659 C481S limits assumed): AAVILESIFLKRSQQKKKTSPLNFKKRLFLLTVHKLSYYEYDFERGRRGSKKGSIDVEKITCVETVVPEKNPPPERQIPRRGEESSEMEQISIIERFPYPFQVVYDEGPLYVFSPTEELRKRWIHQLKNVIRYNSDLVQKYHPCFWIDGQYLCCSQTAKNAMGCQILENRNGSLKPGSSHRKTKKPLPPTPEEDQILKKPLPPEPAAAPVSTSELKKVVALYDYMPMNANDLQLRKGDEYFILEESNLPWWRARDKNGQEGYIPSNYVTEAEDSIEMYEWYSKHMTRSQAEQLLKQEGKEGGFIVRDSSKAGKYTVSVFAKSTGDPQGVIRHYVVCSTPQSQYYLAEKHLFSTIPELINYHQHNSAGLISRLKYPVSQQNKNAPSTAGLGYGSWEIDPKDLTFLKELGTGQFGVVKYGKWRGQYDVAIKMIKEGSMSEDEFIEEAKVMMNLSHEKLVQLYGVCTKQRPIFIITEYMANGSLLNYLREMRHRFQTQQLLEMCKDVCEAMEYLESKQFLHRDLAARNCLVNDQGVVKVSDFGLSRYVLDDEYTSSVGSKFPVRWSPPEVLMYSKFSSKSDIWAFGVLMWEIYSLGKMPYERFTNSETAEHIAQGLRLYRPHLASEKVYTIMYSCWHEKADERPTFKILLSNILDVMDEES

Sequence of Tyrosine-protein kinase BTK (Q06187 whole entry): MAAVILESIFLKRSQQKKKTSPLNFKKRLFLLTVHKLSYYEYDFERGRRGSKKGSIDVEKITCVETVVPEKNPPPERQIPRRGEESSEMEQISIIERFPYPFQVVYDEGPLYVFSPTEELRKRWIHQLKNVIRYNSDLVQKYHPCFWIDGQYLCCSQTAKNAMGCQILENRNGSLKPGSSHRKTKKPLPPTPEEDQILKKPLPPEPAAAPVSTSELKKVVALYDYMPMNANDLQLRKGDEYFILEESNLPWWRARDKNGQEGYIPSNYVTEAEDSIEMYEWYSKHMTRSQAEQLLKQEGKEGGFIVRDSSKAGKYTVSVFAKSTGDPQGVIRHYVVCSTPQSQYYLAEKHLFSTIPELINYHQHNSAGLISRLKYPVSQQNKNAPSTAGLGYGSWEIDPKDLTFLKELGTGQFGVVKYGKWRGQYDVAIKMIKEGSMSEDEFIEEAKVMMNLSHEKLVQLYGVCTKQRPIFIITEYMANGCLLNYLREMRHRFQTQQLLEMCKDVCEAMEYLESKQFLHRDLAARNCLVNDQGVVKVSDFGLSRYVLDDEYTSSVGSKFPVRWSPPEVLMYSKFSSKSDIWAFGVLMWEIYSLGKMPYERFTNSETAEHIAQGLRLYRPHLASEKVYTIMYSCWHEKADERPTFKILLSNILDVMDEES

Take `Nc1ncnc2c1c(-c1ccc(Oc3ccccc3)cc1)nn2[C@H]1CC[C@@H](O)CC1` [US12384786, Example 8A]: the values for the IC50 in test [1] and in test [2] were 2.5 nM and 0.7 nM, respectively.
